The values that follow come from patent publication US4005075A, “Penicillins and their preparation” (Sumitomo Chemical Company, Limited, priority 1973, dated 1977).

≈ marks a conversion by molar mass, not a printed value.

One experiment concerns Escherichia coli NIHJ. Description: Antimicrobial activity, agar dilution method (minimal inhibitory concentration).
Settings: not given
Type of experiment: cell-based. From the text:
(§1) The antimicrobial activities of the compounds obtained in the above Examples determined by the standard test method (i.e. agar dilution method) as well as those of the following penicillins as disclosed in U.S. Pat. No. 3,433,784 are shown in Table 2: [drawing 59]
In general terms: In agar dilution the substance is mixed into plates at graded concentrations.
`CN(C)c1ccc2ncc(C(=O)N[C@@H](C(=O)N[C@@H]3C(=O)N4[C@@H]3SC(C)(C)[C@@H]4C(=O)O)c3ccc(O)cc3)c(O)c2n1` [Example 14]: the MIC came out at 1.56 µg/mL (≈ 2.69 µM).
Same read-out and setting: as for `Cc1ccc2c(O)c(C(=O)N[C@@H](C(=O)N[C@@H]3C(=O)N4[C@@H]3SC(C)(C)[C@@H]4C(=O)O)c3ccccc3)cnc2n1` [Example 15], the figure is 3.13 µg/mL (≈ 5.84 µM); as for `CC(=O)Nc1ccc2ncc(C(=O)N[C@@H](C(=O)N[C@@H]3C(=O)N4[C@@H]3SC(C)(C)[C@@H]4C(=O)O)c3ccccc3)c(O)c2c1` [Example 17], 12.5 µg/mL (≈ 21.6 µM).
The molecule `CC1(C)S[C@@H]2[C@H](NC(=O)[C@H](NC(=O)c3cnccc3O)c3ccc(O)cc3)C(=O)N2[C@H]1C(=O)O` [Example 18] displayed an MIC of 12.5 µg/mL (≈ 25.7 µM).
In turn, `CC1(C)S[C@@H]2[C@H](NC(=O)[C@H](NC(=O)c3cnc4cn[nH]c4c3O)c3ccccc3)C(=O)N2[C@H]1C(=O)O` [Example 20] displayed an MIC of 3.13 µg/mL (≈ 6.13 µM).
As for `CC1(C)S[C@@H]2[C@H](NC(=O)[C@H](NC(=O)c3nc4ccccc4nc3O)c3ccccc3)C(=O)N2[C@H]1C(=O)O` [Example 21], the lowest concentration to inhibit growth (MIC) was 6.25 µg/mL (≈ 12 µM).
Molecule `CN(C)c1ccc2ncc(C(=O)N[C@@H](C(=O)N[C@@H]3C(=O)N4[C@@H]3SC(C)(C)[C@@H]4C(=O)O)C3=CCC=CC3)c(O)c2n1` [Example 28] showed an MIC of 1.56 µg/mL (≈ 2.75 µM).

A further experiment has as its system Klebsiella pneumoniae 602. Described as above. Format: cell-based.
Settings: not given
Text: as §1
`CN(C)c1ccc2ncc(C(=O)N[C@@H](C(=O)N[C@@H]3C(=O)N4[C@@H]3SC(C)(C)[C@@H]4C(=O)O)c3ccc(O)cc3)c(O)c2n1` [Example 14] registered an MIC of 3.13 µg/mL (≈ 5.39 µM).
With `Cc1ccc2c(O)c(C(=O)N[C@@H](C(=O)N[C@@H]3C(=O)N4[C@@H]3SC(C)(C)[C@@H]4C(=O)O)c3ccccc3)cnc2n1` [Example 15], the MIC turned out to be 1.56 µg/mL (≈ 2.91 µM).
On to `CC(=O)Nc1ccc2ncc(C(=O)N[C@@H](C(=O)N[C@@H]3C(=O)N4[C@@H]3SC(C)(C)[C@@H]4C(=O)O)c3ccccc3)c(O)c2c1` [Example 17], for which inhibition of growth (MIC) required 3.13 µg/mL (≈ 5.42 µM).
`CC1(C)S[C@@H]2[C@H](NC(=O)[C@H](NC(=O)c3cnccc3O)c3ccc(O)cc3)C(=O)N2[C@H]1C(=O)O` [Example 18] returned an MIC of 200 µg/mL (≈ 411 µM).
On to `CC1(C)S[C@@H]2[C@H](NC(=O)[C@H](NC(=O)c3cnc4cn[nH]c4c3O)c3ccccc3)C(=O)N2[C@H]1C(=O)O` [Example 20], for which it took 6.25 µg/mL (≈ 12.2 µM) to inhibit growth (MIC).
Molecule `CC1(C)S[C@@H]2[C@H](NC(=O)[C@H](NC(=O)c3nc4ccccc4nc3O)c3ccccc3)C(=O)N2[C@H]1C(=O)O` [Example 21] gave an MIC of 12.5 µg/mL (≈ 24 µM).
`CN(C)c1ccc2ncc(C(=O)N[C@@H](C(=O)N[C@@H]3C(=O)N4[C@@H]3SC(C)(C)[C@@H]4C(=O)O)C3=CCC=CC3)c(O)c2n1` [Example 28]: the MIC was determined as 6.25 µg/mL (≈ 11 µM).

Another experiment relates to Proteus miravilis 2425. Described as above. Format: cell-based.
Settings: not given
Text: as §1
In turn, `CN(C)c1ccc2ncc(C(=O)N[C@@H](C(=O)N[C@@H]3C(=O)N4[C@@H]3SC(C)(C)[C@@H]4C(=O)O)c3ccc(O)cc3)c(O)c2n1` [Example 14] registered an MIC of 1.56 µg/mL (≈ 2.69 µM).
On to `Cc1ccc2c(O)c(C(=O)N[C@@H](C(=O)N[C@@H]3C(=O)N4[C@@H]3SC(C)(C)[C@@H]4C(=O)O)c3ccccc3)cnc2n1` [Example 15], for which the MIC was 3.13 µg/mL (≈ 5.84 µM).
Turning to `CC(=O)Nc1ccc2ncc(C(=O)N[C@@H](C(=O)N[C@@H]3C(=O)N4[C@@H]3SC(C)(C)[C@@H]4C(=O)O)c3ccccc3)c(O)c2c1` [Example 17], it took 3.13 µg/mL (≈ 5.42 µM) to inhibit growth (MIC).
The same measure, in the same setting: as for `CC1(C)S[C@@H]2[C@H](NC(=O)[C@H](NC(=O)c3cnccc3O)c3ccc(O)cc3)C(=O)N2[C@H]1C(=O)O` [Example 18], the figure is 25 µg/mL (≈ 51.4 µM).
On the same count and under the same terms, as for `CC1(C)S[C@@H]2[C@H](NC(=O)[C@H](NC(=O)c3cnc4cn[nH]c4c3O)c3ccccc3)C(=O)N2[C@H]1C(=O)O` [Example 20], the figure is 3.13 µg/mL (≈ 6.13 µM).
The molecule `CC1(C)S[C@@H]2[C@H](NC(=O)[C@H](NC(=O)c3nc4ccccc4nc3O)c3ccccc3)C(=O)N2[C@H]1C(=O)O` [Example 21] had an MIC of 25 µg/mL (≈ 47.9 µM).
For the molecule `CN(C)c1ccc2ncc(C(=O)N[C@@H](C(=O)N[C@@H]3C(=O)N4[C@@H]3SC(C)(C)[C@@H]4C(=O)O)C3=CCC=CC3)c(O)c2n1` [Example 28], the MIC stood at 1.56 µg/mL (≈ 2.75 µM).

A further experiment has as its system Proteus vulgaris HX19. The description is as above. Format: cell-based.
Settings: not given
Text: as §1
Regarding `CC1(C)S[C@@H]2[C@H](NC(=O)C(C(=O)O)c3ccccc3)C(=O)N2[C@H]1C(=O)O` (stereo partly shown) [Carbenicillin, reference compound], inhibition of growth (MIC) required 0.78 µg/mL (≈ 2.06 µM).
`CN(C)c1ccc2ncc(C(=O)N[C@@H](C(=O)N[C@@H]3C(=O)N4[C@@H]3SC(C)(C)[C@@H]4C(=O)O)c3ccc(O)cc3)c(O)c2n1` [Example 14]: 0.1 µg/mL (≈ 0.172 µM) was the least that counted as inhibitory (MIC).
For the molecule `Cc1ccc2c(O)c(C(=O)N[C@@H](C(=O)N[C@@H]3C(=O)N4[C@@H]3SC(C)(C)[C@@H]4C(=O)O)c3ccccc3)cnc2n1` [Example 15], the MIC worked out at 0.2 µg/mL (≈ 0.373 µM).
Take `CC(=O)Nc1ccc2ncc(C(=O)N[C@@H](C(=O)N[C@@H]3C(=O)N4[C@@H]3SC(C)(C)[C@@H]4C(=O)O)c3ccccc3)c(O)c2c1` [Example 17]: the MIC was 0.1 µg/mL (≈ 0.173 µM).
In turn, `CC1(C)S[C@@H]2[C@H](NC(=O)[C@H](NC(=O)c3cnccc3O)c3ccc(O)cc3)C(=O)N2[C@H]1C(=O)O` [Example 18] yielded an MIC of 0.2 µg/mL (≈ 0.411 µM).
Molecule `CC1(C)S[C@@H]2[C@H](NC(=O)[C@H](NC(=O)c3cnc4cn[nH]c4c3O)c3ccccc3)C(=O)N2[C@H]1C(=O)O` [Example 20] came in with an MIC of 0.1 µg/mL (≈ 0.196 µM).
Molecule `CC1(C)S[C@@H]2[C@H](NC(=O)[C@H](NC(=O)c3nc4ccccc4nc3O)c3ccccc3)C(=O)N2[C@H]1C(=O)O` [Example 21] had an MIC of 0.78 µg/mL (≈ 1.5 µM).
`CN(C)c1ccc2ncc(C(=O)N[C@@H](C(=O)N[C@@H]3C(=O)N4[C@@H]3SC(C)(C)[C@@H]4C(=O)O)C3=CCC=CC3)c(O)c2n1` [Example 28]: the lowest concentration to inhibit growth (MIC) was 0.05 µg/mL (≈ 0.0882 µM).

A further experiment has as its system Psudomonas aeruginosa 104. Described as above. Format: cell-based.
Settings: not given
Text: as §1
`CC1(C)S[C@@H]2[C@H](NC(=O)C(C(=O)O)c3ccccc3)C(=O)N2[C@H]1C(=O)O` (stereo partly shown) [Carbenicillin, reference compound]: it took 50 µg/mL (≈ 132 µM) to inhibit growth (MIC).
As for `CN(C)c1ccc2ncc(C(=O)N[C@@H](C(=O)N[C@@H]3C(=O)N4[C@@H]3SC(C)(C)[C@@H]4C(=O)O)c3ccc(O)cc3)c(O)c2n1` [Example 14], the MIC was 3.13 µg/mL (≈ 5.39 µM).
On the same count and under the same terms, the same measure for `Cc1ccc2c(O)c(C(=O)N[C@@H](C(=O)N[C@@H]3C(=O)N4[C@@H]3SC(C)(C)[C@@H]4C(=O)O)c3ccccc3)cnc2n1` [Example 15]: 3.13 µg/mL (≈ 5.84 µM); for `CC(=O)Nc1ccc2ncc(C(=O)N[C@@H](C(=O)N[C@@H]3C(=O)N4[C@@H]3SC(C)(C)[C@@H]4C(=O)O)c3ccccc3)c(O)c2c1` [Example 17]: 6.25 µg/mL (≈ 10.8 µM).
With `CC1(C)S[C@@H]2[C@H](NC(=O)[C@H](NC(=O)c3cnccc3O)c3ccc(O)cc3)C(=O)N2[C@H]1C(=O)O` [Example 18], the MIC amounted to 3.13 µg/mL (≈ 6.43 µM).
Take `CC1(C)S[C@@H]2[C@H](NC(=O)[C@H](NC(=O)c3cnc4cn[nH]c4c3O)c3ccccc3)C(=O)N2[C@H]1C(=O)O` [Example 20]: 6.25 µg/mL (≈ 12.2 µM) was the least that counted as inhibitory (MIC).
On the same count and under the same terms, the same measure for `CC1(C)S[C@@H]2[C@H](NC(=O)[C@H](NC(=O)c3nc4ccccc4nc3O)c3ccccc3)C(=O)N2[C@H]1C(=O)O` [Example 21]: 1.56 µg/mL (≈ 2.99 µM); for `CN(C)c1ccc2ncc(C(=O)N[C@@H](C(=O)N[C@@H]3C(=O)N4[C@@H]3SC(C)(C)[C@@H]4C(=O)O)C3=CCC=CC3)c(O)c2n1` [Example 28]: 3.13 µg/mL (≈ 5.52 µM).

The next experiment deals with Staphylococcus aureus 209P. Described as above. Format: cell-based.
Settings: not given
Text: as §1
`CN(C)c1ccc2ncc(C(=O)N[C@@H](C(=O)N[C@@H]3C(=O)N4[C@@H]3SC(C)(C)[C@@H]4C(=O)O)c3ccc(O)cc3)c(O)c2n1` [Example 14] came in with an MIC of 3.13 µg/mL (≈ 5.39 µM).
Same read-out and setting: as for `Cc1ccc2c(O)c(C(=O)N[C@@H](C(=O)N[C@@H]3C(=O)N4[C@@H]3SC(C)(C)[C@@H]4C(=O)O)c3ccccc3)cnc2n1` [Example 15], the figure is 0.39 µg/mL (≈ 0.728 µM); as for `CC(=O)Nc1ccc2ncc(C(=O)N[C@@H](C(=O)N[C@@H]3C(=O)N4[C@@H]3SC(C)(C)[C@@H]4C(=O)O)c3ccccc3)c(O)c2c1` [Example 17], 0.78 µg/mL (≈ 1.35 µM); as for `CC1(C)S[C@@H]2[C@H](NC(=O)[C@H](NC(=O)c3cnccc3O)c3ccc(O)cc3)C(=O)N2[C@H]1C(=O)O` [Example 18], 1.56 µg/mL (≈ 3.21 µM).
Regarding `CC1(C)S[C@@H]2[C@H](NC(=O)[C@H](NC(=O)c3cnc4cn[nH]c4c3O)c3ccccc3)C(=O)N2[C@H]1C(=O)O` [Example 20], the MIC stood at 0.78 µg/mL (≈ 1.53 µM).
On to `CC1(C)S[C@@H]2[C@H](NC(=O)[C@H](NC(=O)c3nc4ccccc4nc3O)c3ccccc3)C(=O)N2[C@H]1C(=O)O` [Example 21], for which the lowest concentration to inhibit growth (MIC) was 0.2 µg/mL (≈ 0.383 µM).
As to `CN(C)c1ccc2ncc(C(=O)N[C@@H](C(=O)N[C@@H]3C(=O)N4[C@@H]3SC(C)(C)[C@@H]4C(=O)O)C3=CCC=CC3)c(O)c2n1` [Example 28], the MIC was 0.78 µg/mL (≈ 1.38 µM).

Another experiment has as its system Pseudomonas.
Test: not given
Conditions: prior art penicillins; cited from earlier work.
Take `CC1(C)S[C@@H]2[C@H](NC(=O)C(C(=O)O)c3ccccc3)C(=O)N2[C@H]1C(=O)O` (stereo partly shown) [Carbenicillin, reference compound]: the anti-Pseudomonas activity entry is “not sufficiently strong”.
For `CC1(C)S[C@@H]2[C@H](NC(=O)C(c3ccccc3)S(=O)(=O)O)C(=O)N2[C@H]1C(=O)O` (stereo partly shown) [Sulfocillin], the anti-Pseudomonas activity entry is listed as “not sufficiently strong”.

In general, MIC refers to the smallest concentration in the dilution series that meets the test's criterion for growth inhibition. A lower MIC goes with inhibition by little substance.
